# Results: patent publication EP4201483A1, “LPL1 DERIVED IMMUNE ENHANCING PEPTIDES” (Eberhard-Karls-Universität Tübingen, priority 2021, dated 2023)
# Where no end group is shown, it is not given here.
# Columns and labels:
# [1] = test system: peripheral blood mononuclear cells (PBMCs); experiment: Cytokine production by stimulated peripheral blood mononuclear cells (LegendPlex-Kits); assay type: cell-based; conditions: PBMCs from different donors; MDP 20 µg/ml, others 6 and 30 µg/ml
# Experimental: (§1) The figures show: • Figure 1: Extent of sequence homology of the nine Lpl proteins encoded by the lpl operon in S. aureus USA300. […] LSP, leader signal peptide. Total length without LSP is 267 aa. We have chosen Lpli as a prototype of Lpl proteins for further studies. • Figure 2: L13 and L15 inhibit S. aureus internalization by HaCaT cells and N/TERT1 cells. N/TERT-1 are immortalized human keratinocytes. L15 was used at 20 µM), L13 at 30 µM and geldanamycin at 5 µM. SNC1 is representative for the many peptides that had no effect • Figure 3: Alignment of Lpl protein homologs. (A) Multiple sequence alignment of Lpls generated by using SnapGene software. Amino acids that match the Lpli sequence are highlighted in yellow. […] A therapeutic model (treatment at intervals post-infection) is already envisaged in the course of this project. • Figure 5: Quantification of the secreted cytokine IL-23 after stimulation of peripheral blood mononuclear cells of different donors with various cell wall components of Staphylococcus aureus. […] The measured IL-23 concentrations are depicted in pg/ml ± standard error of mean (SEM). • Figure 6: Prediction of Lpli structure and localization of L15 (top row, binding area indicated by white arrows) and L13 (bottom row, binding area indicated by white arrows) in Lpli. […]
# [2] = test system: Hsp90; conditions: upon Hsp90 inhibition (Taiyab & Rao Ch, 2011); cited from earlier work
# [3] = in vitro; assay type: cell-based; conditions: human; 24h and 48h of exposure; MTT and resazurin; MM6, HEK293, HaCaT, HeLa, HT-29; read-out: cytotoxicity (viability), concentration
# Experimental: (§2) Cytotoxicity assays were conducted on 5 different mammalian cell lines after 24h and 48h of exposure to the various compounds, using the colorimetric tetrazolium dye MTT and the fluorometric resazurin (Alamar Blue): MM6 (human cell line with characteristics of mature monocytes), HEK293 (human embryonic kidney cells), HaCaT (human keratinocyte cell line), HeLa (human cervical cancer cell line) and HT-29 (human colon cancer cell line).
# [4] = Solubility remark; assay type: physicochemical; conditions: compared with L15; reason why only L15 was used in mice
# [5] = test system: MM6, HEK293, HaCaT, HeLa and HT-29; experiment: Cytotoxicity assays (MTT and resazurin/Alamar Blue) on 5 mammalian cell lines; assay type: cell-based, human; conditions: 24h and 48h of exposure
# Experimental: as §2
# [6] = test system: S. aureus; experiment: Septic arthritis mouse model (mouse sepsis model); assay type: in vivo; conditions: mice treated with L15
# Experimental: as §1
compound,measurement,setting,value
"CC(=O)N[C@H]1C(O)O[C@H](CO)[C@@H](O)[C@@H]1O[C@H](C)C(=O)N[C@@H](C)C(=O)N[C@H](CCC(=O)O)C(N)=O (mixture of isomers) [Muramyl Dipeptide (MDP), Muramyl Dipeptide]","levels of TNF, IL-1β, IL-6 or IL-10 induced",[1],high levels
"C=CCNC1=C2C[C@@H](C)C[C@H](OC)[C@H](O)[C@@H](C)/C=C(\C)[C@H](OC(N)=O)[C@@H](OC)/C=C\C=C(/C)C(=O)NC(=CC1=O)C2=O [Peptide 17AAG, 17AAG]",F-actin formation,[2],decreased
COC1=C2C[C@@H](C)C[C@H](OC)[C@H](O)[C@@H](C)/C=C(\C)[C@H](OC(N)=O)[C@@H](OC)/C=C\C=C(/C)C(=O)NC(=CC1=O)C2=O [geldanamycin],MCC,[3],≤ 10 µM
"GHYFVTTFY [Peptide L13, GHYFVTTFY]",solubility,[4],less soluble
same,"cytotoxicity (viability), concentration",[5],> 100 µM
"TAKGHYFVTTFYRNG [Peptide L15, TAKGHYFVTTFYRNG]","cytotoxicity (viability), concentration",[5],> 100 µM
same,behaviour of treated mice (side observation),[6],hyperactive
